Source: patent publication EP0745595A1, “3-(3-Aryloxyphenyl)-1-(substituted methyl)-s-triazine-2,4,6-oxo or thiotrione herbicidal agents” (American Cyanamid Company, priority 1995, dated 1996)

Key:
Assay type in all cases: in vivo
[1] = tested on: TRITICUM AESTIVUM, CV. APOLLO; experiment: Postemergence herbicidal evaluation, TRZAWO (Wheat, Winter, CV. APOLLO)
Procedure: In the tests, seedling plants are grown in jiffy flats for about two weeks. The test compounds are dispersed in 50/50 acetone/water mixtures containing 0.5% TWEEN®20, a polyoxyethylene sorbitan monolaurate surfactant of Atlas Chemical Industries, […] through a spray nozzle operating at 40 psi for a predetermined time. After spraying, the plants are placed on greenhouse benches and are cared for in the usual manner, commensurate with conventional greenhouse practices. From four to five weeks after treatment, the seedling plants are examined and rated according to the rating system set forth below. Where more than one test is involved for a given compound, the data are averaged.
(§1) Plant species employed in these evaluations are reported by header abbreviation, common name and scientific name.
(§2) Results of herbicide evaluation are expressed on a rating scale (0-9). The scale is based upon a visual observation of plant stand, vigor, malformation, size, chlorosis and overall plant appearance as compared with a control.

CHENOPODIUM ALBUM, L. [2] = experiment: Preemergence herbicidal evaluation, CHEAL (Lambsquarters, Common); conditions: rated four to five weeks after treatment
Procedure, shortened: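 Injury scored visually (0–9; stand, vigor, malformation, size, chlorosis) versus untreated control, four to five weeks post-treatment. Application: aqueous acetone spray onto freshly planted soil cups, equivalent to about 0.125 to 0.50 kg/ha, plants then kept under standard greenhouse care.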

[3] = tested on: AMBROSIA ARTEMISIIFOLIA, L.; experiment: Preemergence herbicidal evaluation, AMBEL (Ragweed, Common); conditions: rated four to five weeks after treatment
Source text: as §2
(§3) The preemergence herbicidal activity of the test compounds of the present invention is exemplified by the following tests in which the seeds of a variety of monocotyledonous and dicotyledonous plants are separately mixed with potting soil and planted on top of approximately one inch of soil in separate pint cups. […] The treated cups are then placed on greenhouse benches, watered and cared for in accordance with conventional greenhouse procedures. From four to five weeks after treatment, the tests are terminated and each cup is examined and rated according to the rating system provided in Example 40.
(§4) The compounds evaluated are reported by compound number given in Example 40.

[4] = tested on: SETARIA VIRIDIS, (L) BEAU; experiment: Postemergence herbicidal evaluation, SETVI (Foxtail, Green); set-up: key to SETVI rating / Herbicidal effect rating, SETVI / SETVI: 0-9 visual rating scale vs untreated control
Procedure, shortened: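 Two-week-old seedlings sprayed with compound in 50/50 acetone/water plus 0.5% TWEEN 20 at about 0.125–0.500 kg/ha via nozzle at 40 psi. Kept in greenhouse; rated visually 4–5 weeks after treatment on a 0–9 scale versus untreated control, averaging repeat tests.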

[5] = tested on: ORYZA SATIVA, L. TEBONNET; experiment: Rice tolerance to post-transplant applications under flooded paddy conditions, ORYSAT (Rice, Tebonnet); conditions: post-transplant rice, 3-4 weeks after treatment
Procedure, shortened: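 Two ten-day-old Tebonnet rice seedlings were transplanted into silt loam and kept flooded 1.5 to 3 cm deep. Three days after transplanting, the flood surface received the compound in aqueous/acetone 50/50 v/v at about 0.5, 0.25, 0.125 or 0.063 kg/ha. Injury was rated visually on a 0-9 scale versus control after 3-4 weeks.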

CASSIA OBTUSIFOLIA, L. [6] = experiment: Preemergence herbicidal evaluation, CASOB (Sicklepod); conditions: rated four to five weeks after treatment
Procedure, shortened: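 Seeds of various monocot and dicot plants, including sicklepod, were each mixed with potting soil and sown on roughly one inch of soil in separate pint cups for preemergence testing. Treated cups were kept on greenhouse benches, watered and maintained conventionally. Four to five weeks after treatment, each cup was visually rated on a 0-9 scale against a control.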

CASSIA OBTUSIFOLIA, L. [7] = experiment: Postemergence herbicidal evaluation, CASOB (Sicklepod); set-up: key to CASOB rating / Herbicidal effect rating, CASOB / CASOB: 0-9 visual rating scale vs untreated control
Procedure, shortened: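 Seedlings about two weeks old were sprayed with compound in 50/50 acetone/water containing 0.5% Tween 20 at about 0.125-0.500 kg/ha and kept in the greenhouse. Visual injury was rated on a 0-9 scale versus control 4-5 weeks after treatment; repeat tests were averaged.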

ZEA MAYS L. [8] = experiment: Preemergence herbicidal evaluation, ZEAMX (Corn, Field); conditions: rated four to five weeks after treatment
Source text: as §2, §3, §4

ZEA MAYS L. [9] = experiment: Postemergence herbicidal evaluation, ZEAMX (Corn, Field)
Procedure: In the tests, seedling plants are grown in jiffy flats for about two weeks. The test compounds are dispersed in 50/50 acetone/water mixtures containing 0.5% TWEEN®20, a polyoxyethylene sorbitan monolaurate surfactant of Atlas Chemical Industries, […] to the plants through a spray nozzle operating at 40 psi for a predetermined time. After spraying, the plants are placed on greenhouse benches and are cared for in the usual manner, commensurate with conventional greenhouse practices. From four to five weeks after treatment, the seedling plants are examined and rated according to the rating system set forth below. Where more than one test is involved for a given compound, the data are averaged.
as §1, §2

[10] = tested on: AMBROSIA ARTEMISIIFOLIA, L.; experiment: Postemergence herbicidal evaluation, AMBEL (Ragweed, Common)
Procedure, shortened: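 Common ragweed (Ambrosia artemisiifolia) seedlings were raised in jiffy flats for roughly two weeks, then sprayed postemergence through a nozzle at 40 psi with the test compound dispersed in 50/50 acetone/water carrying 0.5% TWEEN®20. The plants were kept on greenhouse benches under conventional care. Four to five weeks later, injury was rated visually on a 0-9 scale, and repeat tests were averaged.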

IPOMOEA SPP. [11] = experiment: Preemergence herbicidal evaluation, IPOSS (Morningglory spp.); conditions: rated four to five weeks after treatment
Source text: as §2, §3, §4

CHENOPODIUM ALBUM, L. [12] = experiment: Postemergence herbicidal evaluation, CHEAL (Lambsquarters, Common)
Procedure, shortened: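 Seedlings of common lambsquarters (Chenopodium album) were raised in jiffy flats for roughly two weeks, then sprayed postemergence through a nozzle at 40 psi with test compound dispersed in 50/50 acetone/water containing 0.5% TWEEN®20 surfactant. Plants were kept on greenhouse benches under standard care and rated visually on a 0-9 scale versus controls.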

IPOMOEA SPP. [13] = experiment: Postemergence herbicidal evaluation, IPOSS (Morningglory spp.)
Procedure, shortened: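 Seedlings of morningglory (Ipomoea spp.) were raised in jiffy flats for roughly two weeks. They were then sprayed postemergence through a nozzle at 40 psi with test compound dispersed in 50/50 acetone/water containing 0.5% TWEEN®20 surfactant. Plants were kept on greenhouse benches under standard care and visually rated 0-9 against controls four to five weeks after treatment.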

[14] = tested on: ABUTILON THEOPHRASTI, MEDIC.; experiment: Postemergence herbicidal evaluation, ABUTH (Velvetleaf)
Procedure, shortened: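 Velvetleaf (Abutilon theophrasti) seedlings were raised in jiffy flats for about two weeks and then sprayed postemergence. The test compound was dispersed in a 50/50 acetone/water mixture containing 0.5% TWEEN®20 and applied through a nozzle operating at 40 psi. Plants were kept on greenhouse benches and rated 0-9 four to five weeks after treatment.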

Structure (SMILES): COC(=O)Cn1c(=O)n(C)c(=O)n(-c2cc(Oc3ncc(C(F)(F)F)cc3Cl)ccc2Br)c1=O [Compound 45]
- TRZAWO rating ([1]; Rate 0.125 kg/ha): 9.0
- TRZAWO rating ([1]; Rate 0.250 kg/ha): 9.0
- TRZAWO rating ([1]; Rate 0.500 kg/ha): 9.0
- CHEAL herbicidal rating (CHENOPODIUM ALBUM, L. [2]; Rate 0.125 kg/ha): 9.0
- CHEAL herbicidal rating (CHENOPODIUM ALBUM, L. [2]; Rate 0.250 kg/ha): 9.0
- CHEAL herbicidal rating (CHENOPODIUM ALBUM, L. [2]; Rate 0.500 kg/ha): 9.0
- AMBEL herbicidal rating ([3]; Rate 0.125 kg/ha): 0.0
- AMBEL herbicidal rating ([3]; Rate 0.250 kg/ha): 0.0
- AMBEL herbicidal rating ([3]; Rate 0.500 kg/ha): 0.0
- SETVI rating ([4]; Rate 0.125 kg/ha): 9.0
- SETVI rating ([4]; Rate 0.250 kg/ha): 9.0
- SETVI rating ([4]; Rate 0.500 kg/ha): 9.0
- Herbicidal effect rating, ORYSAT ([5]; 0.063 kg/ha): 2.0
- Herbicidal effect rating, ORYSAT ([5]; 0.125 kg/ha): 2.0
- Herbicidal effect rating, ORYSAT ([5]; 0.250 kg/ha): 4.0
- Herbicidal effect rating, ORYSAT ([5]; 0.500 kg/ha): 6.0
- CASOB herbicidal rating (CASSIA OBTUSIFOLIA, L. [6]; Rate 0.125 kg/ha): 0.0
- CASOB herbicidal rating (CASSIA OBTUSIFOLIA, L. [6]; Rate 0.250 kg/ha): 0.0
- CASOB herbicidal rating (CASSIA OBTUSIFOLIA, L. [6]; Rate 0.500 kg/ha): 0.0
- CASOB rating (CASSIA OBTUSIFOLIA, L. [7]; Rate 0.125 kg/ha): 9.0
- CASOB rating (CASSIA OBTUSIFOLIA, L. [7]; Rate 0.250 kg/ha): 9.0
- CASOB rating (CASSIA OBTUSIFOLIA, L. [7]; Rate 0.500 kg/ha): 9.0
- ZEAMX herbicidal rating (ZEA MAYS L. [8]; Rate 0.125 kg/ha): 0.0
- ZEAMX herbicidal rating (ZEA MAYS L. [8]; Rate 0.250 kg/ha): 0.0
- ZEAMX herbicidal rating (ZEA MAYS L. [8]; Rate 0.500 kg/ha): 0.0
- ZEAMX rating (ZEA MAYS L. [9]; Rate 0.125 kg/ha): 9.0
- ZEAMX rating (ZEA MAYS L. [9]; Rate 0.250 kg/ha): 9.0
- ZEAMX rating (ZEA MAYS L. [9]; Rate 0.500 kg/ha): 9.0
- AMBEL rating ([10]; Rate 0.125 kg/ha): 9.0
- AMBEL rating ([10]; Rate 0.250 kg/ha): 9.0
- AMBEL rating ([10]; Rate 0.500 kg/ha): 9.0
- IPOSS herbicidal rating (IPOMOEA SPP. [11]; Rate 0.125 kg/ha): 0.0
- IPOSS herbicidal rating (IPOMOEA SPP. [11]; Rate 0.250 kg/ha): 0.0
- IPOSS herbicidal rating (IPOMOEA SPP. [11]; Rate 0.500 kg/ha): 0.0
- CHEAL rating (CHENOPODIUM ALBUM, L. [12]; Rate 0.125 kg/ha): 9.0
- CHEAL rating (CHENOPODIUM ALBUM, L. [12]; Rate 0.250 kg/ha): 9.0
- CHEAL rating (CHENOPODIUM ALBUM, L. [12]; Rate 0.500 kg/ha): 9.0
- IPOSS rating (IPOMOEA SPP. [13]; Rate 0.125 kg/ha): 9.0
- IPOSS rating (IPOMOEA SPP. [13]; Rate 0.250 kg/ha): 9.0
- IPOSS rating (IPOMOEA SPP. [13]; Rate 0.500 kg/ha): 9.0
- ABUTH rating ([14]; Rate 0.125 kg/ha): 9.0
- ABUTH rating ([14]; Rate 0.250 kg/ha): 9.0
- ABUTH rating ([14]; Rate 0.500 kg/ha): 9.0
